The results in this text go back to US20220289724A1, “KIF18A INHIBITORS” (AMGEN INC., priority 2019, published 2022).

One may read the IC50 as the concentration needed to halve the response being measured.

T1 sequence (Q8NI77 1-467): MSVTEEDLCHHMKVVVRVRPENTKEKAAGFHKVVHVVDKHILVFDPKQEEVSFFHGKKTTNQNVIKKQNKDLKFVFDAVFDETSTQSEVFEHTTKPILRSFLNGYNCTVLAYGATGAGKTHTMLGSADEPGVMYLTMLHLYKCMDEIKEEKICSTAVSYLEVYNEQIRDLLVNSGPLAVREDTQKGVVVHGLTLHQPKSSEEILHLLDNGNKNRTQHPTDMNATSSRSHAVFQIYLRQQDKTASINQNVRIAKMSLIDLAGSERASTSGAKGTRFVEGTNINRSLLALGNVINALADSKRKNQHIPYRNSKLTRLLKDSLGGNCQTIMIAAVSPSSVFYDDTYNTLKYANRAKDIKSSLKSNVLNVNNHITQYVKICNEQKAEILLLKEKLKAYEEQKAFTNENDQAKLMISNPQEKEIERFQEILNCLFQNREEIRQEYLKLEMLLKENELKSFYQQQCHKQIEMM
T1 sequence (P02550 whole entry partner): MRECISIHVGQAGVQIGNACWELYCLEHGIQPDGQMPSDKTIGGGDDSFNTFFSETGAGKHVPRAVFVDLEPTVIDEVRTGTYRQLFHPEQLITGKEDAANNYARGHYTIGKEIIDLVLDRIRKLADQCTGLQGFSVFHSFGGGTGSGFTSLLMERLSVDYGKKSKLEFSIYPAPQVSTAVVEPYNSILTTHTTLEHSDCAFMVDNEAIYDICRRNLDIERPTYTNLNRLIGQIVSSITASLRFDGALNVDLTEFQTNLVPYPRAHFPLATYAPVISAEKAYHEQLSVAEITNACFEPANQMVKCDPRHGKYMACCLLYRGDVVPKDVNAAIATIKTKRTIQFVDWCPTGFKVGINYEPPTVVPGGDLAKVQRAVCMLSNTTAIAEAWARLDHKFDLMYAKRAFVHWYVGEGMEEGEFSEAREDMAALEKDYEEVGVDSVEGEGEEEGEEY
T1 sequence (P02554 whole entry partner): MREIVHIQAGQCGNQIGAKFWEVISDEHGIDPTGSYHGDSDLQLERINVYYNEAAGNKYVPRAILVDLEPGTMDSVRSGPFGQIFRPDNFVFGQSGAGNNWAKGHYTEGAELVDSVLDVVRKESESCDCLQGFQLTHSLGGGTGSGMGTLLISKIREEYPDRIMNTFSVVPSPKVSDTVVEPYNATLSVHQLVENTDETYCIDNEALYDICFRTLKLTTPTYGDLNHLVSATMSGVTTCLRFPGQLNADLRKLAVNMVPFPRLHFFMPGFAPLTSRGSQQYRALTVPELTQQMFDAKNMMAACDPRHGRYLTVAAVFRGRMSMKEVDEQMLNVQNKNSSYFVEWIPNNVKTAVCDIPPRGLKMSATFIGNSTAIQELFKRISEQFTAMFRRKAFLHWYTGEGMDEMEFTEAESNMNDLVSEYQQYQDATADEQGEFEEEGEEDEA

This test has as its target T1, Recombinant human KIF18A (1-467 His-tagged) protein (Homo sapiens, UniProt Q8NI77).
T1 construct: Recombinant human KIF18A (1-467 His-tagged) protein; His; made in house
The test is described as follows: KIF18A Enzyme Assay: microtubule-stimulated ATPase activity assay (ADP-Glo). In kind it is biochemical. The note with it: KIF18A protein 30 nM, 30 μg/mL pig microtubules, ATP at Km 75 μM, ADP-Glo luminescence, RT. An excerpt:
KIF18A Enzyme Assay: Microtubule-stimulated ATPase activity assay is used to measure KIF18A enzyme activity after treatment with compound. Compounds were 2-fold serially diluted in DMSO (Sigma Inc) over 22-point concentration range. Recombinant human KIF18A (1-467 His-tagged) protein was expressed using a baculovirus system and purified by affinity chromatography by Amgen Inc. Concentrations of KIF18A protein, microtubules (MT), and ATP in the reaction were optimized for standardized homogenous enzyme assay using ADP-Glorm Kinase/ATPase Assay Kit (Promega Inc). The assay measures ADP formed from the ATPase reaction. […] Concentration-response curve-fitting and IC50 determination was performed using Genedata Screener Software (Standard 15.0.1, Genedata Inc) with a four-parameter logistic regression fit model.
Table A provides data for compounds exemplified in the present application and priority document thereof, as representative compounds of the present invention, as follows: chemical name (as named by either ACD software or ChemDraw (Professional 15.0)) and biological data (IC50 in μM). Ex. […] refers to Example No.
As for `O=C(Nc1ccc(NS(=O)(=O)CCO)cc1N1CCC2(CC1)CC2)c1cccc(N2CCCCC2)c1` [Example 115, N-(4-((2-Hydroxyethyl)sulfonamido)-2-(6-azaspiro[2.5]octan-6-yl)phenyl)-3-(piperidin-1-yl)benzamide], the IC50 stood at 26 nM. Consider `CC(C)(C)NS(=O)(=O)c1cccc(NC(=O)c2ccc(C(=O)NC(C)(C)CO)cc2N2CCC3(CC2)CC3)c1` [Example 111-3, N^1-(3-(N-(tert-butyl)sulfamoyl)phenyl)-N^4-(1-hydroxy-2-methylpropan-2-yl)-2-(6-azaspiro[2.5]octan-6-yl)terephthalamide], for which the IC50 came to 272 nM. The figure for `C[S@@](=N)(=O)c1cccc(NC(=O)c2ccc(NS(=O)(=O)CCO)cc2N2CCC3(CC2)CC3)c1` [Example 113-1, (R)-4-((2-hydroxyethyl)sulfonamido)-N-(3-(S-methylsulfonimidoyl)phenyl)-2-(6-azaspiro[2.5]octan-6-yl)benzamide] is 429 nM; for `O=C(NCCO)c1ccc(C(=O)Nc2cccc(S(=O)(=O)C3CCCC3)c2)c(N2CCC3(CC2)CC3)c1` [Example 111-4, N^1-(3-(cyclopentylsulfonyl)phenyl)-N^4-(2-hydroxyethyl)-2-(6-azaspiro[2.5]octan-6-yl)terephthalamide] it is 139 nM.

Turning to `CC(C)(C)NS(=O)(=O)c1cccc(NC(=O)c2ccc(-c3ncco3)cc2N2CCC3(CC2)CC3)c1` [Example 109-3, N-(3-(N-(tert-butyl)sulfamoyl)phenyl)-4-(oxazol-2-yl)-2-(6-azaspiro[2.5]octan-6-yl)benzamide], the IC50 came out at 534 nM. For the compound `CC(C)(C)NS(=O)(=O)c1cccc(NC(=O)c2ccc(NC(C)(C)CO)cc2N2CCC3(CC2)CC3)c1` [Example 110, N-(3-(N-(tert-Butyl)sulfamoyl)phenyl)-4-((1-hydroxy-2-methylpropan-2-yl)amino)-2-(6-azaspiro[2.5]octan-6-yl)benzamide], the IC50 stood at 58 nM.

`CC(C)(C)NS(=O)(=O)c1cccc(NC(=O)c2ccc(NS(=O)(=O)C3(C)CC3)cc2N2CCC3(CC2)CC3)c1` [Example 102, N-(3-(N-(tert-Butyl)sulfamoyl)phenyl)-4-((1-methylcyclopropane)-1-sulfonamido)-2-(6-azaspiro[2.5]octan-6-yl)benzamide]: the concentration for half-maximal inhibition (IC50) is 61 nM. As for `Cn1nccc1-c1ccc(C(=O)Nc2cccc(S(=O)(=O)NC(C)(C)C)c2)c(N2CCC3(CC2)CC3)c1` [Example 109-1, N-(3-(N-(tert-butyl)sulfamoyl)phenyl)-4-(1-methyl-1H-pyrazol-5-yl)-2-(6-azaspiro[2.5]octan-6-yl)benzamide], the figure is 601 nM. Take `CC(C)(C)NS(=O)(=O)c1cccc(NC(=O)c2ccc(S(=O)(=O)NCCO)cc2N2CCC3(CC2)CC3)c1` [Example 107-2, N-(3-(N-(tert-butyl)sulfamoyl)phenyl)-4-(N-(2-hydroxyethyl)sulfamoyl)-2-(6-azaspiro[2.5]octan-6-yl)benzamide]: the IC50 was 43 nM. As for `CC(C)(C)[S@](=N)(=O)c1cccc(NC(=O)c2ccc(NS(=O)(=O)CCO)cc2N2CCC3(CC2)CC3)c1` [Example 114-2, (S)-4-((2-hydroxyethyl)sulfonamido)-N-(3-(2-methylpropan-2-ylsulfonimidoyl)phenyl)-2-(6-azaspiro[2.5]octan-6-yl)benzamide], the figure is 323 nM; as for `Cc1ccnc2c(NC(=O)c3ccc(S(C)(=O)=O)cc3N3CCC4(CC3)CC4)cccc12` [Example 100-6, N-(4-methylquinolin-8-yl)-4-(methylsulfonyl)-2-(6-azaspiro[2.5]octan-6-yl)benzamide], 61 nM. As to `N=[S@](=O)(c1cccc(NC(=O)c2ccc(NS(=O)(=O)CCO)cc2N2CCC3(CC2)CC3)c1)N1CCC1` (single isomer, unassigned) [Example 112-1], the IC50 stood at 142 nM. As for `Cn1cc(-c2ccc(C(=O)Nc3cccc(S(=O)(=O)NC(C)(C)C)c3)c(N3CCC4(CC3)CC4)c2)cn1` [Example 109-2, N-(3-(N-(tert-butyl)sulfamoyl)phenyl)-4-(1-methyl-1H-pyrazol-4-yl)-2-(6-azaspiro[2.5]octan-6-yl)benzamide], the figure is 1090 nM; as for `CC(C)(C)NS(=O)(=O)c1cccc(NC(=O)c2ccc(NS(=O)(=O)C(C)(C)C)cc2N2CCC3(CC2)CC3)c1` [Example 102-5, N-(3-(N-(tert-butyl)sulfamoyl)phenyl)-4-((1,1-dimethylethyl)sulfonamido)-2-(6-azaspiro[2.5]octan-6-yl)benzamide], 63 nM.

With `CS(=O)(=O)c1ccc(C(=O)Nc2cccc3c2OCCC3)c(N2CCC3(CC2)CC3)c1` [Example 100-7, N-(chroman-8-yl)-4-(methylsulfonyl)-2-(6-azaspiro[2.5]octan-6-yl)benzamide], the IC50 was found to be 45 nM. As for `CC(C)(C)NS(=O)(=O)c1cccc(NC(=O)c2ccc(NS(C)(=O)=O)cc2N2CCC3(CC2)CC3)c1` [Example 102-1, N-(3-(N-(tert-butyl)sulfamoyl)phenyl)-4-(methylsulfonamido)-2-(6-azaspiro[2.5]octan-6-yl)benzamide], the figure is 27 nM; as for `CNS(=O)(=O)c1ccc(C(=O)Nc2cccc(S(=O)(=O)NC(C)(C)C)c2)c(N2CCC3(CC2)CC3)c1` [Example 107-4, N-(3-(N-(tert-butyl)sulfamoyl)phenyl)-4-(N-methylsulfamoyl)-2-(6-azaspiro[2.5]octan-6-yl)benzamide], 29 nM; as for `CS(=O)(=O)c1ccc(C(=O)Nc2cccc3cccnc23)c(N2CCC3(CC2)CC3)c1` [Example 100-5, 4-(methylsulfonyl)-N-(quinolin-8-yl)-2-(6-azaspiro[2.5]octan-6-yl)benzamide], 246 nM. The figure for `CS(=O)(=O)c1ccc(C(=O)Nc2cccc(C3CC3)c2)c(N2CCC3(CC2)CC3)c1` [Example 100-3, N-(3-cyclopropylphenyl)-4-(methylsulfonyl)-2-(6-azaspiro[2.5]octan-6-yl)benzamide] is 187 nM. For the compound `CS(=O)(=O)c1ccc(C(=O)Nc2cccc3ccsc23)c(N2CCC3(CC2)CC3)c1` [Example 100-9, N-(benzo[b]thiophen-7-yl)-4-(methylsulfonyl)-2-(6-azaspiro[2.5]octan-6-yl)benzamide], the IC50 was 630 nM. As for `C[C@H](CO)S(=O)(=O)Nc1ccc(C(=O)Nc2cccc(S(=O)(=O)NC(C)(C)C)c2)c(N2CCC3(CC2)CC3)c1` (single isomer, unassigned) [Example 105-2], the figure is 57 nM; as for `CC(C)(O)COc1cccc(NC(=O)c2ccc(NS(=O)(=O)CCO)cc2N2CCC3(CC2)CC3)c1` [Example 106, N-(3-(2-Hydroxy-2-methylpropoxy)phenyl)-4-((2-hydroxyethyl)sulfonamido)-2-(6-azaspiro[2.5]octan-6-yl)benzamide], 78 nM; as for `C[C@@H]1CN(c2cccc(NC(=O)c3ccc(NS(=O)(=O)CCO)cc3N3CCC4(CC3)CC4)c2F)CCO1` [Example 103-2, (R)-N-(2-fluoro-3-(2-methylmorpholino)phenyl)-4-((2-hydroxyethyl)sulfonamido)-2-(6-azaspiro[2.5]octan-6-yl)benzamide], 101 nM.

For `CC(C)(C)NS(=O)(=O)c1cccc(NC(=O)c2ccc(C3(C)COC3)cc2N2CCC3(CC2)CC3)c1` [Example 100-14, N-(3-(N-(tert-butyl)sulfamoyl)phenyl)-4-(3-methyloxetan-3-yl)-2-(6-azaspiro[2.5]octan-6-yl)benzamide], the IC50 came to 130 nM.

Regarding `O=C(Nc1cccc(N2CCC(F)(F)CC2)c1)c1ccc(NS(=O)(=O)CCO)cc1N1CCC2(CC1)CC2` [Example 104-1, N-(3-(4,4-difluoropiperidin-1-yl)phenyl)-4-((2-hydroxyethyl)sulfonamido)-2-(6-azaspiro[2.5]octan-6-yl)benzamide], the IC50 is 12 nM. As to `CS(=O)(=O)c1ccc(C(=O)Nc2cccc3ccoc23)c(N2CCC3(CC2)CC3)c1` [Example 100-8, N-(benzofuran-7-yl)-4-(methylsulfonyl)-2-(6-azaspiro[2.5]octan-6-yl)benzamide], the IC50 amounted to 200 nM. The figure for `CC(C)(C)NS(=O)(=O)c1cccc(NC(=O)c2ccc(S(=O)(=O)NC(C)(C)CO)cc2N2CCC3(CC2)CC3)c1` [Example 107-1, N-(3-(N-(tert-butyl)sulfamoyl)phenyl)-4-(N-(1-hydroxy-2-methylpropan-2-yl)sulfamoyl)-2-(6-azaspiro[2.5]octan-6-yl)benzamide] is 60 nM; for `CC(C)(C)NS(=O)(=O)c1cccc(NC(=O)c2ccc(C(=O)NCCO)cc2N2CCC3(CC2)CC3)c1` [Example 111, N-(3-(N-(tert-Butyl)sulfamoyl)phenyl)-N^4-(2-hydroxyethyl)-2-(6-azaspiro[2.5]octan-6-yl)terephthalamide] it is 124 nM. The figure for `C[S@](=N)(=O)c1cccc(NC(=O)c2ccc(NS(=O)(=O)CCO)cc2N2CCC3(CC2)CC3)c1` [Example 113-2, (S)-4-((2-hydroxyethyl)sulfonamido)-N-(3-(S-methylsulfonimidoyl)phenyl)-2-(6-azaspiro[2.5]octan-6-yl)benzamide] is 488 nM. The figure for `O=C(Nc1cccc(N2CCC(F)(F)CC2)c1F)c1ccc(NS(=O)(=O)CCO)cc1N1CCC2(CC1)CC2` [Example 104-2, N-(3-(4,4-difluoropiperidin-1-yl)-2-fluorophenyl)-4-((2-hydroxyethyl)sulfonamido)-2-(6-azaspiro[2.5]octan-6-yl)benzamide] is 29 nM.
